In paper PMC10840709 (Cell chemical biology, 2023):

Legend:
BRAF V600E = BRAF V600E (Homo sapiens, UniProt P15056, V600E); assay: NanoBRET target engagement in HEK293 cells; format: cell-based
BRAF = BRAF (Homo sapiens, UniProt P15056); assay: HotSpot […]-ATP kinase assay; format: biochemical
CSNK2A2 = CSNK2A2 (Homo sapiens, UniProt P19784); assay: HotSpot […]-ATP kinase assay; format: biochemical
Chain of CSNK2A2 (P19784 whole entry): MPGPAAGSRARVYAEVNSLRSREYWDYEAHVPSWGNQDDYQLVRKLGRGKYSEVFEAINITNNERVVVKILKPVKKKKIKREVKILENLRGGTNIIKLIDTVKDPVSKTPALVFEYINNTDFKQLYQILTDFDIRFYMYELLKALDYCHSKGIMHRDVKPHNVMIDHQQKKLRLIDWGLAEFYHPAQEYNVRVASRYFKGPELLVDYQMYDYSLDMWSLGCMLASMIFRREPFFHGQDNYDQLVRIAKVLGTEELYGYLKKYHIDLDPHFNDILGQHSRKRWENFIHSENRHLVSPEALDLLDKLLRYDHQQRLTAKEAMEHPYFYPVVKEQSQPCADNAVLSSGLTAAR

Chain of BRAF V600E (P15056 2-766 V600E): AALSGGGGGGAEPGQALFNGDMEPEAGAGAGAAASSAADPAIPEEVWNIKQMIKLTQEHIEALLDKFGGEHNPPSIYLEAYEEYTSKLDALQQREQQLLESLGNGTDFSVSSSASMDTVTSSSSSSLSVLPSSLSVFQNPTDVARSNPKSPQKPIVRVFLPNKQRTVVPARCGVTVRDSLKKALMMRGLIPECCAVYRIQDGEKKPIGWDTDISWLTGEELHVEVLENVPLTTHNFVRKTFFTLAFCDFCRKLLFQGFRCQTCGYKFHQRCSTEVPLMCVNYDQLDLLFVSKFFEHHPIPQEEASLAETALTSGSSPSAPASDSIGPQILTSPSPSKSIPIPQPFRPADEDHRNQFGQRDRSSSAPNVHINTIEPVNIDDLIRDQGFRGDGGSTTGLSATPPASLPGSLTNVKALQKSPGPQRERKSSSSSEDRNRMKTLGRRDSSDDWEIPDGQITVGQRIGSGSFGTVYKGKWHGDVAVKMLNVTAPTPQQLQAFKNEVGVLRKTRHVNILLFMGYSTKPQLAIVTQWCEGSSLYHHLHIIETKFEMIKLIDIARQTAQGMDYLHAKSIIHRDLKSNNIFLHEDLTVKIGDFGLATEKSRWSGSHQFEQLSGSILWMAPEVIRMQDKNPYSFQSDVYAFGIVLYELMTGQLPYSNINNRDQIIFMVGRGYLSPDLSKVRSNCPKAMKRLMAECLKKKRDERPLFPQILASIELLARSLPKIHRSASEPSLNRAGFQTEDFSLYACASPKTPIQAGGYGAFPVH
Chain of BRAF (P15056 2-766): as the sequence (P15056 2-766 V600E) above, with E599V counted along it

SMILES | IC50 (BRAF V600E) | IC50 (BRAF) | IC50 (CSNK2A2)
Cc1ccc(NC(=O)c2ccc(CN3CC[C@H](N(C)C)C3)c(C(F)(F)F)c2)cc1Nc1nccc(-c2cncnc2)n1 [bafetinib] | 217 nM | 41.6 nM | 
CCN1CCN(Cc2ccc(Nc3ncc(F)c(-c4cc(F)c5nc(C)n(C(C)C)c5c4)n3)nc2)CC1 [abemaciclib] |  |  | 36.4 nM
